Assay results published in patent US20240309005A1 (priority 2021, published 2024).
Converted amounts (≈) assume the structure as drawn.

Columns and labels:
in vivo [1] = settings: male, CD1, mouse; for Cmax / bioavailability: po, 30 mg/kg
physchem = settings: 25 °C, kinetic from dmso stock
in vivo [2] = settings: male, SD, rat; for Cmax / bioavailability: po, 30 mg/kg
[3] = male, SD, in vivo
CYP1A2 = CYP1A2 (Homo sapiens (Human), UniProt P05177); assay: in vitro; settings: microsomes
CYP1A2, sequence (P05177 whole entry): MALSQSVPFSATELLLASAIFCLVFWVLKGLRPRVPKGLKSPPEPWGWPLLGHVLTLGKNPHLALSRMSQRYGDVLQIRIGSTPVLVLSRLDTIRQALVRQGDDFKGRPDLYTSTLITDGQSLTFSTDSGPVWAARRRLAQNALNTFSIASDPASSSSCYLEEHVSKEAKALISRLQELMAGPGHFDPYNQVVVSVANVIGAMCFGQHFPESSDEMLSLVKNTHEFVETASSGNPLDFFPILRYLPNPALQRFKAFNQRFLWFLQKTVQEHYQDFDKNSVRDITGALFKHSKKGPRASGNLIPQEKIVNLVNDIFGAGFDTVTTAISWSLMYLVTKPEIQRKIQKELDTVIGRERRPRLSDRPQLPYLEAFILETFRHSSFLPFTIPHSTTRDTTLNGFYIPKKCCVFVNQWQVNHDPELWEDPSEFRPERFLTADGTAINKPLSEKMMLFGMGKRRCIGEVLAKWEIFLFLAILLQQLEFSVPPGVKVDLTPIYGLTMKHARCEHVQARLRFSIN

Row | SMILES | half-life (in vivo [1]) | Cmax (in vivo [1]) | bioavailability (in vivo [1]) | solubility at 2 h (physchem; pH 5, fessif) | solubility at 2 h (physchem; pH 7.4, aqueous buffer) | Cmax (in vivo [2]; pK Data in Rat: Cmax) | pK Data in Rat: F [3] | half-life (in vivo [2]) | bioavailability (in vivo [2]) | Cmax (in vivo [2]; Cmax (ng/ml)) | hERG/IC50 (hERG / SGK1 (whole cell)) | inhibition at 20 min, 10 µM (CYP1A2)
1 | COc1ccnc(S(=O)(=O)Nc2ccc(-c3nc(NCCN(C)C)c4c(C)n[nH]c4n3)cc2)c1 [Compound 27, N-(4-(4-((2-(dimethylamino)ethyl)amino)-3-methyl-1H-pyrazolo[3,4-d]pyrimidin-6-yl)phenyl)-4-methoxypyridine-2-sulfonamide] | 2.7 h | 40.3 ng/mL |  | 256 µM (≈ 124 µg/mL) | 36.5 µM (≈ 17.6 µg/mL) |  |  |  |  |  | 341 | 
2 | Cc1n[nH]c2nc(-c3ccc(NS(=O)(=O)c4ccccn4)cc3)nc(NCCN(C)C)c12 [Compound 24, N-[4-(4-[[2-(dimethylamino)ethyl]amino]-3-methyl-1H-pyrazolo[3,4-d]pyrimidin-6-yl)phenyl]pyridine-2-sulfonamide] | 2.3 h | 45.1 ng/mL | 1.55% | 300 µM (≈ 136 µg/mL) | 278 µM (≈ 126 µg/mL) |  |  |  |  |  | 20.7 | 
3 | Cc1nc2c([nH]1)c(=O)n(C)c(=O)n2Cc1ccco1 [Furafylline] |  |  |  |  |  |  |  |  |  |  |  | 78%
4 | Cc1n[nH]c2nc(-c3ccc(NS(=O)(=O)c4cc(Cl)ccc4F)c(F)c3)nc(OC3CCN(C(C)C)CC3)c12 [Compound 28] | 3.4 h | 4020 ng/mL | 51% | 293 µM (≈ 169 µg/mL) | 1.7 µM (≈ 0.981 µg/mL) | 4020 ng/mL | Cmax = 4017 ng/mL F = 51% |  |  |  |  | 

The next lines start with results.

Row | half-life (in vivo [1]) | Cmax (in vivo [1]) | bioavailability (in vivo [1]) | solubility at 2 h (physchem; pH 5, fessif) | solubility at 2 h (physchem; pH 7.4, aqueous buffer) | Cmax (in vivo [2]; pK Data in Rat: Cmax) | pK Data in Rat: F [3] | half-life (in vivo [2]) | bioavailability (in vivo [2]) | Cmax (in vivo [2]; Cmax (ng/ml)) | SMILES | hERG/IC50 (hERG / SGK1 (whole cell)) | inhibition at 20 min, 10 µM (CYP1A2)
5 | 2.5 h | 111 ng/mL | 4.9% | 275 µM (≈ 152 µg/mL) | 16 µM (≈ 8.83 µg/mL) | 69 ng/mL | Cmax = 69 ng/mL F = 4.9% |  |  |  | Cc1n[nH]c2nc(-c3ccc(NS(=O)(=O)c4cc(Cl)ccc4F)c(F)c3)nc(NCCN(C)CCO)c12 [Compound 78, 5-chloro-2-fluoro-N-{2-fluoro-4-[4-({2-[(2-hydroxyethyl)(methyl)amino]ethyl}amino)-3-methyl-1H-pyrazolo[3,4-d]pyrimidin-6-yl]phenyl}benzenesulfonamide] |  | 
6 |  |  |  | 277 µM (≈ 135 µg/mL) | 7.98 µM (≈ 3.89 µg/mL) | 131 ng/mL | Cmax = 131 ng/mL F = 4.7% | 3.63 h | 4.68% | 131 ng/mL | Cc1n[nH]c2nc(-c3ccc(NS(=O)(=O)c4cc(F)ccc4F)cc3)nc(NCCN(C)C)c12 [Compound 45, N-(4-(4-((2-(dimethylamino)ethyl)amino)-3-methyl-1H-pyrazolo[3,4-d]pyrimidin-6-yl)phenyl)-2,5-difluorobenzenesulfonamide] |  | 
7 |  |  |  |  |  | 141 ng/mL | Cmax = 141 ng/mL F = 5.6% | 10 h | 5.6% | 141 ng/mL | Cc1n[nH]c2nc(-c3ccc(NS(=O)(=O)c4cc(Cl)ccc4F)c(Cl)c3)nc(NCCN(C)CCO)c12 [Compound 99, 5-chloro-N-{2-chloro-4-[4-({2-[(2-hydroxyethyl)(methyl)amino]ethyl}amino)-3-methyl-1H-pyrazolo[3,4-d]pyrimidin-6-yl]phenyl}-2-fluorobenzenesulfonamide] | 91 | 
8 |  | 9.3 ng/mL | 0.31% | 297 µM (≈ 143 µg/mL) | 37 µM (≈ 17.9 µg/mL) |  |  |  |  |  | COc1ccncc1S(=O)(=O)Nc1ccc(-c2nc(NCCN(C)C)c3c(C)n[nH]c3n2)cc1 [Compound 19, N-(4-(4-(2-(dimethylamino)ethylamino)-3-methyl-1H-pyrazolo[3,4-d]pyrimidin-6-yl)phenyl)-4-methoxypyridine-3-sulfonamide] | 1.5 | 
9 | 2.3 h | 37.9 ng/mL | 2.5% | 289 µM (≈ 154 µg/mL) | 8.37 µM (≈ 4.47 µg/mL) | 42 ng/mL | Cmax = 42 ng/mL F = 2.8% | 5.14 h | 2.79% | 41.9 ng/mL | Cc1n[nH]c2nc(-c3ccc(NS(=O)(=O)c4cc(Cl)ccc4F)cc3)nc(NCCN(C)CCO)c12 [Compound 22, 5-chloro-2-fluoro-N-[4-[4-([2-[(2-hydroxyethyl)(methyl)amino]ethyl]amino)-3-methyl-1H-pyrazolo[3,4-d]pyrimidin-6-yl]phenyl]benzenesulfonamide] | 201 | 
